Like-named read-outs stand apart in the source and are kept apart here.

Experiment [1] has as its target MAPKAPK2 (MK-2) (Homo sapiens, UniProt P49137). Description: Determination of MK-2 IC50 (HSP-peptide phosphorylation, anion exchange resin capture assay). The format is biochemical. A digest of the protocol:
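MAPKAPK2, preactivated by p38α with 0.25 mM ATP for 1 h at 30° C, used at 15 nM to phosphorylate HSP-peptide with 0.03 mM ATP plus [γ33P]ATP, pH 7.5, 2% DMSO, 30 min at 30° C. Labelled peptide counted after anion-exchange resin capture; IC50 from six ten-fold dilutions, triplicate.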

Experiment [2] concerns the target MK-3 (Homo sapiens, UniProt Q16644). Description: MK-3 inhibition IC50 (similar method to MK-2, with appropriate modifications). The format is biochemical. The following applies: read-out: MK-3 Avg. IC50.
[3] abbreviates: Table 5, other cyclic pyrazole MK-2 inhibiting compounds, read-out: MK-2 Avg. IC50.
The mark [4] stands for this setting: Table 5, other cyclic pyrazole MK-2 inhibiting compounds.
Setting [5] is: Table 1, phenoxypyrazole MK-2 inhibitors, read-out: MK-2 Avg, IC50.
Where [6] appears, read: Table 1, phenoxypyrazole MK-2 inhibitors.
[7] abbreviates: Table 2, pyrazolylpyrazole MK-2 inhibitors, read-out: MK-2 Avg. IC50.
Setting [8] is: Table 2, pyrazolylpyrazole MK-2 inhibitors.

Sequence of MK-3 (Q16644 whole entry, species assumed): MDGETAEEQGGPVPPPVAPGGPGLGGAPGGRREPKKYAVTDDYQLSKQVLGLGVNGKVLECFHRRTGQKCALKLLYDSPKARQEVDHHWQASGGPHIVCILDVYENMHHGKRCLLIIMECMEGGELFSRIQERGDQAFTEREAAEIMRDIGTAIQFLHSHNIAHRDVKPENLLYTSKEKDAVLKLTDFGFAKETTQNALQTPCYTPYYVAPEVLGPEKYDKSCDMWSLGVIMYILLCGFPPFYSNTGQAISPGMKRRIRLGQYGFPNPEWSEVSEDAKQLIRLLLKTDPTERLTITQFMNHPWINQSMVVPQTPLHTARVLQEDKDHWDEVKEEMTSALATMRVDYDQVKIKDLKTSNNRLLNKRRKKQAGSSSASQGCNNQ
Sequence of MAPKAPK2 (MK-2) (P49137 whole entry, species assumed): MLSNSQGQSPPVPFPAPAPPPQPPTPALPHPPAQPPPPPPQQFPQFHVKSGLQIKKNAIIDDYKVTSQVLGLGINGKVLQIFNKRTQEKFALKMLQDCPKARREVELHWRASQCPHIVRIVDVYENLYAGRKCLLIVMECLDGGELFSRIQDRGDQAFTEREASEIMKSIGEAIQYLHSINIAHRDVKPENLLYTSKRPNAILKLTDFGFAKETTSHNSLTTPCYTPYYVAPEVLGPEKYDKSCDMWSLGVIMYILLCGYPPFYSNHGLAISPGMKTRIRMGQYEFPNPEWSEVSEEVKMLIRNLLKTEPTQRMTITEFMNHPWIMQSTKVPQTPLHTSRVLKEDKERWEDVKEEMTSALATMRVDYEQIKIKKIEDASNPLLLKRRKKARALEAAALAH

Turning to `O=C(O)c1c2c(nn1CCCNCCc1ccc(Br)cc1)-c1cc(/C=C/c3ccccc3)ncc1CC2` [Example 34], the IC50 in experiment [1] (setting [3]) is 0.28 µM; in experiment [2] (setting [4]), 2.02 µM.

`NCCCn1nc2c(c1C(=O)O)CCc1cc(O)c(-c3ccc([N+](=O)[O-])cc3)cc1-2` [Example 9]: the IC50 in experiment [1] (setting [5]) worked out at 4.91 µM; in experiment [2] (setting [6]), 104 µM.

`NCCCn1nc2c(c1C(=O)O)CCc1cc(O)c(-c3ccc(Cl)cc3)cc1-2` [Example 15]: the 50% inhibitory concentration (IC50) in experiment [1] (setting [5]) worked out at 11 µM; in experiment [2] (setting [6]), 109 µM.

As for `COc1ccc(-c2cc3c(cn2)CCc2c-3nn(CCCN)c2C(=O)O)cc1` [Example 10], the IC50 in experiment [1] (read-out: MK-2 Avg. IC50) was determined as 0.0371 µM; in experiment [2] it was 0.995 µM.

`CCOC(=O)c1c2c(nn1CC(F)(F)F)-c1cn[nH]c1CC2` [Example 72]: the half-inhibitory concentration (IC50) in experiment [1] (setting [7]) and in experiment [2] (setting [8]) was not below 200 µM in each case.

Consider `COc1ccc(-n2nc(C(=O)O)c3c2-c2ccc(OC)cc2CC3)cc1` [Example 162], for which the IC50 in experiment [1] (setting [5]) and in experiment [2] (setting [6]) was more than 200 µM each time.

On to `COc1ccc2c(c1)CCc1c(C(=O)NCCCN(C)C)nn(-c3ccc(Cl)cc3)c1-2` [Example 161], for which the IC50 in experiment [1] (setting [5]) and in experiment [2] (setting [6]) was more than 200 µM each time.

For the compound `NCCCn1nc2c(c1C(=O)O)CCc1cc(O)c(N)cc1-2` [Example 27], the IC50 in experiment [1] (setting [5]) was 26.8 µM; in experiment [2] (setting [6]) it was more than 200 µM.

As to `NC(=O)c1nn(Cc2ccccc2)c2c1CCc1[nH]ncc1-2` [Example 34], the IC50 was 120 µM in experiment [1] (setting [7]) and not below 200 µM in experiment [2] (setting [8]).

For `O=C1NC(CO)Cn2nc3c(c21)CCc1cnccc1-3` (stereo not drawn) [Example 71], the IC50 in experiment [1] (read-out: MK-2 Avg. IC50) is 0.825 µM; in experiment [2], 35 µM.

In the case of `O=C(O)c1c2c(nn1CCCNCCc1ccc(-c3ccccc3C(F)(F)F)cc1)-c1ccncc1CC2` [Example 70], the IC50 in experiment [1] (read-out: MK-2 Avg. IC50) worked out at 0.801 µM; in experiment [2], 44.8 µM.

`O=C(O)c1c2c(nn1CCCNCCCc1cccc(Cl)c1)-c1ccncc1CC2` [Example 35]: the results for the IC50 in experiment [1] (read-out: MK-2 Avg. IC50) and in experiment [2] were 0.207 µM and 8.57 µM, respectively.

Consider `CCOC(=O)Cn1nc2c(c1C(=O)OCC)CCc1[nH]ncc1-2` [Example 113], for which the IC50 in experiment [1] (setting [7]) and in experiment [2] (setting [8]) was not below 200 µM throughout.

Consider `O=C1NCCn2nc3c(c21)CCc1cnc(-n2ccnc2)cc1-3` [Example 13], for which the IC50 in experiment [1] (read-out: MK-2 Avg. IC50) is 0.0523 µM; in experiment [2] it was 5.34 µM.

Consider `C=CCC1Cc2c(C(N)=O)n[nH]c2-c2ccc(O)cc21` (stereo not drawn) [Example 56], for which the IC50 in experiment [1] (setting [5]) is 139 µM; in experiment [2] (setting [6]), more than 200 µM.

For the compound `O=C1NCCn2nc3c(c21)CCc1cnc(/C=C/c2ccc(C(F)(F)F)cc2)cc1-3` [Example 9], the half-maximal inhibitory concentration (IC50) in experiment [1] (setting [3]) is 2.26 µM; in experiment [2] (setting [4]), more than 20 µM.

Take `CONC(=O)c1[nH]nc2c1CCc1[nH]ncc1-2` [Example 39]: the IC50 was 141 µM in experiment [1] (setting [7]) and 180 µM in experiment [2] (setting [8]).

On to `O=C1NCCn2nc3c(c21)CCc1[nH]ncc1-3` [Example 14], for which the IC50 in experiment [1] (setting [7]) came to 20 µM; in experiment [2] (setting [8]) it was 137 µM.

`Cc1ccc(C(C)CCNCCCn2nc3c(c2C(=O)O)CCc2cnccc2-3)o1` (stereo not drawn) [Example 59]: the concentration for half-maximal inhibition (IC50) is 0.574 µM in experiment [1] (read-out: MK-2 Avg. IC50) and 22.5 µM in experiment [2].

Turning to `COc1ccc(-n2nc(C(N)=O)c3c2-c2ccc(O)cc2CC3)cc1` [Example 158], the IC50 in experiment [1] (setting [5]) and in experiment [2] (setting [6]) was more than 200 µM throughout.

`COc1cc2c(cc1-c1cccn1C(=O)OC(C)(C)C)-c1nn(CCCNC(=O)OC(C)(C)C)c(C(=O)O)c1CC2` [Example 58]: the IC50 in experiment [1] (setting [5]) is 148 µM; in experiment [2] (setting [6]), more than 200 µM.

Turning to `O=C1NCCCn2nc3c(c21)CCc1cnc(-c2ccc(O)cc2)cc1-3` [Example 31], the results for the IC50 in experiment [1] (read-out: MK-2 Avg. IC50) and in experiment [2] were 0.183 µM and 2.56 µM, respectively.

Take `NCCCn1nc2c(c1C(=O)O)CCc1cnc(Nc3ccccc3)cc1-2` [Example 16]: the IC50 in experiment [1] (read-out: MK-2 Avg. IC50) was 0.074 µM; in experiment [2], 1.15 µM.

Regarding `Cn1nc2c(c1C(=O)O)CCc1cc(O)ccc1-2` [Example 34], the IC50 is 44.4 µM in experiment [1] (setting [5]) and more than 200 µM in experiment [2] (setting [6]).

Consider `COc1cc2c(cc1-c1ccc([N+](=O)[O-])cc1)-c1nn(CCCNC(=O)OC(C)(C)C)c(C(=O)O)c1CC2` [Example 32], for which the IC50 in experiment [1] (setting [5]) was determined as 37.4 µM; in experiment [2] (setting [6]), 115 µM.

Take `NCCCn1nc2c(c1C(=O)O)CCc1cnc(-c3ccc(F)c(F)c3)cc1-2` [Example 17]: the IC50 turned out to be 0.0786 µM in experiment [1] (read-out: MK-2 Avg. IC50) and 1.73 µM in experiment [2].

Take `COc1cc2c(cc1-c1ccccc1Cl)-c1nn(CCCNC(=O)OC(C)(C)C)c(C(=O)O)c1CC2` [Example 52]: the IC50 is 109 µM in experiment [1] (setting [5]) and more than 200 µM in experiment [2] (setting [6]).

For `C=CCn1nc2c(c1C(N)=O)CCc1cc(OCOCCOC)ccc1-2` [Example 80], the IC50 in experiment [1] (setting [5]) and in experiment [2] (setting [6]) was more than 200 µM in each case.

Turning to `O=C(O)c1[nH]nc2c1CCc1c-2cnn1CCO` [Example 30], the figures for the IC50 in experiment [1] (setting [7]) and in experiment [2] (setting [8]) were 114 µM and not below 200 µM, respectively.

`COC(=O)c1[nH]nc2c1CCc1cc(O)c(O)cc1-2` [Example 64]: the results for the IC50 in experiment [1] (setting [5]) and in experiment [2] (setting [6]) were 154 µM and more than 200 µM, respectively.

With `O=C1NCCCn2nc3c(c21)CCc1[nH]nc(SCc2ccccc2)c1-3` [Example 16], the half-inhibitory concentration (IC50) in experiment [1] (setting [7]) turned out to be 23.8 µM; in experiment [2] (setting [8]), 56 µM.

For `CCOC(=O)c1nn(-c2ccccc2)c2c1CCc1c-2cnn1Cc1ccccc1` [Example 55], the IC50 in experiment [1] (setting [7]) and in experiment [2] (setting [8]) was not below 200 µM in each case.

Consider `NCCCn1nc2c(c1C(=O)O)CCc1[nH]nc(SCc3ccccc3)c1-2` [Example 6], for which the values for the IC50 in experiment [1] (setting [7]) and in experiment [2] (setting [8]) were 2.89 µM and 22.1 µM, respectively.

Regarding `O=C(O)c1nn(-c2ccccc2)c2c1CCc1[nH]ncc1-2` [Example 71], the IC50 in experiment [1] (setting [7]) and in experiment [2] (setting [8]) was not below 200 µM each time.

In the case of `CSc1n[nH]c2c1-c1nn(CCCN)c(C(=O)O)c1CC2` [Example 1], the IC50 in experiment [1] (setting [7]) came to 1.06 µM; in experiment [2] (setting [8]) it was 47 µM.

With `COC(=O)c1nn(-c2ccc(S(N)(=O)=O)cc2)c2c1CCc1cc(OC)ccc1-2` [Example 172], the IC50 in experiment [1] (setting [5]) and in experiment [2] (setting [6]) was more than 200 µM in each case.

As to `Cn1nc2c(c1C(N)=O)CCc1cc(O)ccc1-2` [Example 71], the IC50 in experiment [1] (setting [5]) is 179 µM; in experiment [2] (setting [6]), more than 200 µM.

On to `C=CCn1nc2c(c1C(N)=O)CCc1[nH]ncc1-2` [Example 43], for which the figures for the half-maximal inhibitory concentration (IC50) in experiment [1] (setting [7]) and in experiment [2] (setting [8]) were 181 µM and not below 200 µM, respectively.

`NCCCn1nc2c(c1C(=O)O)CCc1cnc(-c3cccc(C(F)(F)F)c3)cc1-2` [Example 12]: the IC50 was determined as 0.0433 µM in experiment [1] (read-out: MK-2 Avg. IC50) and 0.29 µM in experiment [2].

With `COC(=O)c1c2c(nn1CCCNC(=O)OC(C)(C)C)-c1ccc(OC)cc1CC2` [Example 186], the IC50 in experiment [1] (setting [5]) and in experiment [2] (setting [6]) was more than 200 µM each time.

For `NCCCn1nc2c(c1C(=O)NO)CCc1cnc(-c3cnc4ccccc4c3)cc1-2` [Example 28], the values for the IC50 in experiment [1] (read-out: MK-2 Avg. IC50) and in experiment [2] were 0.162 µM and 4.67 µM, respectively.

Consider `O=C(O)c1c2c(nn1CCCNCCc1ccc(-c3cccc(Cl)c3)cc1)-c1ccncc1CC2` [Example 24], for which the IC50 in experiment [1] (read-out: MK-2 Avg. IC50) turned out to be 0.13 µM; in experiment [2] it was 5.85 µM.

`O=C1NCCn2nc3c(c21)CCc1cnc(-c2cccc(O)c2)cc1-3` [Example 27]: the concentration for half-maximal inhibition (IC50) in experiment [1] (read-out: MK-2 Avg. IC50) worked out at 0.148 µM; in experiment [2], 2.51 µM.

In the case of `O=C(O)c1c2c(nn1CCCNCCc1cccs1)-c1ccncc1CC2` [Example 41], the IC50 in experiment [1] (read-out: MK-2 Avg. IC50) is 0.269 µM; in experiment [2], 15.7 µM.

Take `O=C(O)c1c2c(nn1CCCNCCc1ccc(-c3ccoc3)cc1)-c1ccncc1CC2` [Example 23]: the results for the IC50 in experiment [1] (read-out: MK-2 Avg. IC50) and in experiment [2] were 0.126 µM and 2.62 µM, respectively.

The values are drawn from patent US20040127492A1 (Pharmacia Corporation, priority 2002, published 2004).
